Source: the supplement of paper PMC10307832

Key:
Assay in all cases: relative viability (nuclei count vs DMSO), 5 days (fraction); higher = more cells survive
[1] = test system: RERF-LC-KJ
In short: (§1)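 Cells from lung cancer lines were seeded into 1536-well plates and, one day later, dosed by pin tool. Treatments were either a single drug or a fixed dose of an anchor drug with five library-drug doses (not always all listed) in √10 steps. After 5 days, nuclei were stained in a one-step fixation (final 0.05% Triton X-100, 1% formaldehyde, 1 ug/ml Hoechst) and counted on 4× images, and relative viability is the treated-to-vehicle nuclei ratio, as the median of duplicate plates.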

[2] = test system: PC-14
In short: as §1

[3] = test system: NCI-H2405
In short: as §1

[4] = test system: NCI-H1666
In short: as §1

[5] = test system: NCI-H23
In short: as §1

[6] = test system: NCI-H2126
In short: as §1

[7] = test system: HCC-827
In short: as §1

[8] = test system: HCC-78
In short: as §1

[9] = test system: H3255
In short: as §1

[10] = test system: NCI-H650
In short: as §1

[11] = test system: NCI-H520
In short: as §1

[12] = test system: NCI-H661
In short: as §1

[13] = test system: NCI-H2087
In short: as §1

[14] = test system: NCI-H647
In short: as §1

[15] = test system: 201T
In short: as §1

[16] = test system: NCI-H1915
In short: as §1

[17] = test system: LCLC-97TM1
In short: as §1

[18] = test system: EPLC-272H
In short: as §1

[19] = test system: LC-2-ad
In short: as §1

[20] = test system: ChaGo-K-1
In short: as §1

[21] = test system: NCI-H2347
In short: as §1

[22] = test system: COR-L 105
In short: as §1

## COc1nc(C)cnc1NS(=O)(=O)c1cccnc1-c1ccc(-c2nnco2)cc1 [Zibotentan] + CS(=O)(=O)N1CCN(Cc2cc3nc(-c4cccc5[nH]ncc45)nc(N4CCOCC4)c3s2)CC1 [Pictilisib] (partner 1 µM)
[1]; first compound 0.08 µM
  relative viability: 0.484
[1]; first compound 0.253 µM
  relative viability: 0.704
[1]; first compound 0.8 µM
  relative viability: 0.593
[1]; first compound 2.53 µM
  relative viability: 0.514
[2]; first compound 0.08 µM
  relative viability: 0.91
[2]; first compound 0.253 µM
  relative viability: 0.8
[2]; first compound 0.8 µM
  relative viability: 0.793
[2]; first compound 2.53 µM
  relative viability: 0.628
[3]; first compound 0.08 µM
  relative viability: 0.441
[3]; first compound 0.253 µM
  relative viability: 0.339
[3]; first compound 0.8 µM
  relative viability: 0.473
[3]; first compound 2.53 µM
  relative viability: 0.481
[4]; first compound 0.08 µM
  relative viability: 0.553
[4]; first compound 0.253 µM
  relative viability: 0.361
[4]; first compound 0.8 µM
  relative viability: 0.467
[4]; first compound 2.53 µM
  relative viability: 0.429
[5]; first compound 0.08 µM
  relative viability: 0.403
[5]; first compound 0.253 µM
  relative viability: 0.462
[5]; first compound 0.8 µM
  relative viability: 0.556
[5]; first compound 2.53 µM
  relative viability: 0.58
[6]; first compound 0.08 µM
  relative viability: 0.525
[6]; first compound 0.253 µM
  relative viability: 0.525
[6]; first compound 0.8 µM
  relative viability: 0.465
[6]; first compound 2.53 µM
  relative viability: 0.474
[7]; first compound 0.08 µM
  relative viability: 0.95
[7]; first compound 0.253 µM
  relative viability: 0.846
[7]; first compound 0.8 µM
  relative viability: 0.964
[7]; first compound 2.53 µM
  relative viability: 0.956
[8]; first compound 0.08 µM
  relative viability: 0.0937
[8]; first compound 0.253 µM
  relative viability: 0.23
[8]; first compound 0.8 µM
  relative viability: 0.198
[8]; first compound 2.53 µM
  relative viability: 0.195
[9]; first compound 0.08 µM
  relative viability: 0.467
[9]; first compound 0.253 µM
  relative viability: 0.485
[9]; first compound 0.8 µM
  relative viability: 0.467
[9]; first compound 2.53 µM
  relative viability: 0.549
[10]; first compound 0.08 µM
  relative viability: 0.921
[10]; first compound 0.253 µM
  relative viability: 0.773
[10]; first compound 0.8 µM
  relative viability: 0.743
[10]; first compound 2.53 µM
  relative viability: 0.821
[11]; first compound 0.08 µM
  relative viability: 0.336
[11]; first compound 0.253 µM
  relative viability: 0.233
[11]; first compound 0.8 µM
  relative viability: 0.311
[11]; first compound 2.53 µM
  relative viability: 0.316
[12]; first compound 0.08 µM
  relative viability: 0.43
[12]; first compound 0.253 µM
  relative viability: 0.302
[12]; first compound 0.8 µM
  relative viability: 0.391
[12]; first compound 2.53 µM
  relative viability: 0.314
[13]; first compound 0.08 µM
  relative viability: 0.881
[13]; first compound 0.253 µM
  relative viability: 0.834
[13]; first compound 0.8 µM
  relative viability: 1.01
[13]; first compound 2.53 µM
  relative viability: 0.954
[14]; first compound 0.08 µM
  relative viability: 0.391
[14]; first compound 0.253 µM
  relative viability: 0.355
[14]; first compound 0.8 µM
  relative viability: 0.41
[14]; first compound 2.53 µM
  relative viability: 0.388
[15]; first compound 0.08 µM
  relative viability: 0.725
[15]; first compound 0.253 µM
  relative viability: 0.599
[15]; first compound 0.8 µM
  relative viability: 0.628
[15]; first compound 2.53 µM
  relative viability: 0.711
[16]; first compound 0.08 µM
  relative viability: 1.01
[16]; first compound 0.253 µM
  relative viability: 0.955
[16]; first compound 0.8 µM
  relative viability: 0.873
[16]; first compound 2.53 µM
  relative viability: 0.96
[17]; first compound 0.08 µM
  relative viability: 0.214
[17]; first compound 0.253 µM
  relative viability: 0.167
[17]; first compound 0.8 µM
  relative viability: 0.176
[17]; first compound 2.53 µM
  relative viability: 0.176
[18]; first compound 0.08 µM
  relative viability: 0.363
[18]; first compound 0.253 µM
  relative viability: 0.289
[18]; first compound 0.8 µM
  relative viability: 0.239
[18]; first compound 2.53 µM
  relative viability: 0.297
[19]; first compound 0.08 µM
  relative viability: 0.48
[19]; first compound 0.253 µM
  relative viability: 0.406
[19]; first compound 0.8 µM
  relative viability: 0.527
[19]; first compound 2.53 µM
  relative viability: 0.435
[20]; first compound 0.08 µM
  relative viability: 0.653
[20]; first compound 0.8 µM
  relative viability: 0.426
[20]; first compound 2.53 µM
  relative viability: 0.691
[21]; first compound 0.08 µM
  relative viability: 0.601
[21]; first compound 0.253 µM
  relative viability: 0.547
[21]; first compound 0.8 µM
  relative viability: 0.621
[21]; first compound 2.53 µM
  relative viability: 0.769
[22]; first compound 0.08 µM
  relative viability: 0.523
[22]; first compound 0.253 µM
  relative viability: 0.357
[22]; first compound 0.8 µM
  relative viability: 0.477
[22]; first compound 2.53 µM
  relative viability: 0.502
